# From US20070275936A1, “Formulations and Treatment Methods” (priority 1998, published 2007)
# Columns and labels:
# [1] = test system: pentosephosphate shunt (PPS) activity in normal human RBC; assay: PPS flux in whole normal human RBC; assay type: cell-based
# Excerpt: The effect of BrEA on pentosephosphate shunt (PPS) activity in normal human RBC was examined using whole cells. Since glucose-6-phosphate dehydrogenase (“G6PD”) is the limiting enzyme of the PPS, PPS flux measurement is considered to better reflect G6PD activity in the whole cell compared to G6PD activity measurement in a cell lysate. […] PPS flux and G6PD activity in the whole RBC depends on a number of factors (the concentration of NADPH, NAD, and ATP, and intracellular pH), which are kept constant if the measurement is performed in the lysate and may vary in the whole RBC. Levels of G6PD activity in cells is considerably above normal basal needs and inhibition of overall G6PD activity might have no or minor consequence on PPS flux in the whole cell. […] A series of experiments were performed using varying amounts of BrEA and PPS flux was measured in unstimulated basal RBC and in methylene-blue (MB)-stimulated RBC.
# Different concentrations of BrEA (0.3, 3.5 and 7 micromolar, final) were supplemented to suspensions of washed RBC suspended in RPMI, pH 7.4 at 10% hematocrit, whereby PPS flux was immediately measured without further incubation and without further washings.
# In these experiments, different concentrations of BrEA ˜0.8, 8 and 80 micromolar, final) were supplemented to suspensions of washed RBC suspended in RPMI, pH 7.4 at 10% hematocrit. After a 90-min incubation at 37° C. with and without BrEA, PPS flux was measured.
# [2] = test system: CD4+ memory T cell 1 (MT1) and memory T cell 2 (MT2) cells; assay: MT1:MT2 memory T cell ratio in patients after 5 day i.m. BrEA; assay type: in vivo, human
# Protocol: In a separate clinical trial using 100 mg of BrEA delivered to patients once per day for 5 consecutive days by intramuscular injection, several patients were evaluated for changes in the ratio of CD4^+ memory T cell 1 cells (intracellular IFNγ^+ CD45RA^− CD62L^− CD11a^bright) or MT1 cells to memory T cell 2 cells (intracellular IL-4^+ CD45RA^− CD62L^+ CD11a^dim) or MT2 cells. MT1 cells mediate or facilitate Th1 immune responses and MT2 cells mediate or facilitate Th2 immune responses. An increase in the MT1:MT2 ratio indicates an enhanced Th1 immune response or immune status. See, e.g., D. K. Mitra et al., International Immunology 1999 11:1801-1810. […] The maximum observed increase was about 700% in one patient at 10 days after the last dose of BrEA was administered. The increase usually persisted for more than 10 days after the last dose of BrEA was administered.
# [3] = test system: HIV; assay: HIV RNA level by PCR in HIV/HCV infected patient dosed I.V. with BrEA; assay type: in vivo; conditions: predosing 5.2
# Protocol: A patient infected with HIV and HCV was dosed I.V. with BrEA for 3 consecutive days using a formulation that contained 20 mg/mL BrEA in 45% w/v hydroxypropyl-β-cyclodextrin and saline. Four mL of the formulation (80 mg BrEA) was administered to the patient every 4 hours during the 3 day treatment period. The patient's predosing HCV level was 6.5 Log10 as measured by PCR and the HCV level was 6.2 Log10 on the first day of dosing, 5.5 Log10 on the 3rd day of dosing and 4.9 Log10 three days after the last dose was administered. HIV RNA levels as measured by PCR was 5.2 Log10 (predosing), 5.8 Log10 (first day), 5.9 Log10 (third day) and 5.4 Log10 (day 6). The NK cell counts (cells/mm^3) were 28, 41 and 38 at predosing, day 0 and day 3.
# [4] = Oral administration of 14C BrEA to rats, preliminary pharmacokinetics; assay type: in vivo; conditions: 14C BrEA solubilized in different excipients
# Protocol: Nonclinical studies were conducted using an oral and a subcutaneous formulation of BrEA. Rats were orally administered ^14C BrEA solubilized in different excipients to determine the levels of drug in blood and various tissues.
smiles,measurement,setting,value
"C[C@]12CC[C@H](O)C[C@@H]1CC[C@@H]1[C@@H]2CC[C@]2(C)C(=O)[C@H](Br)C[C@@H]12 [BrEA, 16α-bromo-3β-hydroxy-5α-androstane-17-one]",PPS flux,"[1]; 0.3 μM, MB stimulated RBC, no incubation, DMSO control 5090",5000 micromoles/hour/ml RBC
same,PPS flux,"[1]; 0.3 μM, unstimulated RBC, no incubation, DMSO control 270",250 micromoles/hour/ml RBC
same,PPS flux,"[1]; 0.8 μM, MB stimulated, 90-min incubation, average of 3 experiments, DMSO control 4890",4930 micromoles/hour/ml RBC
same,PPS flux,"[1]; 0.8 μM, unstimulated, 90-min incubation at 37° C., average of 3 experiments, DMSO control 480",410 micromoles/hour/ml RBC
same,PPS flux,"[1]; 3.5 μM, MB stimulated RBC, no incubation, DMSO control 5090",4950 micromoles/hour/ml RBC
same,PPS flux,"[1]; 3.5 μM, unstimulated RBC, no incubation, DMSO control 270",270 micromoles/hour/ml RBC
same,PPS flux,"[1]; 7 μM, MB stimulated RBC, no incubation, DMSO control 5090",4660 micromoles/hour/ml RBC
same,inhibition of MB-stimulated PPS flux,"[1]; 7 μM, no incubation",minor inhibition
same,PPS flux,"[1]; 7 μM, unstimulated RBC, no incubation, DMSO control 270",295 micromoles/hour/ml RBC
same,PPS flux,"[1]; 8 μM, MB stimulated, 90-min incubation, average of 3 experiments, DMSO control 4890",4430 micromoles/hour/ml RBC
same,PPS flux,"[1]; 8 μM, unstimulated, 90-min incubation, average of 3 experiments, DMSO control 480",450 micromoles/hour/ml RBC
same,PPS flux,"[1]; 80 μM, MB stimulated, 90-min incubation, average of 3 experiments, DMSO control 4890",3660 micromoles/hour/ml RBC
same,PPS flux,"[1]; 80 μM, unstimulated, 90-min incubation, average of 3 experiments, DMSO control 480",450 micromoles/hour/ml RBC
same,inhibition at 8 µM,"[1]; Homo sapiens, 1.5 h, 8 micromolar, 90-min incubation, p=0.006 vs control+DMSO, read-out: Inhibition of MB-stimulated PPS flux",10%
same,inhibition at 80 µM,"[1]; Homo sapiens, 1.5 h, 80 micromolar, 90-min incubation, p=0.002 vs control+DMSO, read-out: Inhibition of MB-stimulated PPS flux",25%
same,tested patients showing a transient increase in the MT1:MT2 ratio,[2]; 100 mg i.m. once per day for 5 consecutive days,7/7
same,maximum observed increase in the MT1:MT2 ratio,"[2]; one patient, 10 days after the last dose",about 700%
same,HIV RNA levels by PCR,[3]; day 6,5.4 Log10
same,HIV RNA levels by PCR,[3]; first day,5.8 Log10
same,HIV RNA levels by PCR,[3]; third day,5.9 Log10
same,excreted in the feces,[4],at least 80%
